Assay results as given in patent publication US20170127674A1, “MICROPROPAGATION OF ALEXANDRIAN LAUREL (DANAE RACEMOSA L)” (North Carolina A&T State University, priority 2012, published 2017).

Legend:
Type in all cases: in vivo, Danae racemosa L.
[1] = system: Alexandrian laurel seedlings; test: Culture of germinated seeds in BA-supplemented Woody Plant Medium
Experimental: All cultures described herein were transferred onto fresh media every 4 weeks and incubated in a plant tissue culture grade growth chamber under a 16-h photoperiod and a photo flux density of 37.6±4.8 μmol s^−1m^−2 light per day provided by cool white fluorescent tubes at 23±0.1° C., unless otherwise noted. At 10 weeks, a group of germinated seeds from Example 1 was removed from agar medium containing GA3 and transferred to a supplemented WPM culture further comprising BA (at 1.0, 2.0, or 3.0 mg/L, respectively 4.44, 8.88, or 13.32 μM).

[2] = system: Alexandrian laurel seed; test: In vitro germination of seeds in agar medium containing GA3
Experimental: Seeds were purchased (Gethsemane Garden and Landscape Services, Inc., Greensboro, N.C.) and disinfected in a 20% bleach solution plus 20 drops Tween-20 per liter for 20 minutes and then rinsed immediately 3 times with sterile purified water.
The disinfected seeds were subsequently transferred to test tubes containing agar medium and 10 ppm GA3. The medium pH was adjusted to 5.8 with 1N KOH or 1 N HCl. The culture medium was sterilized by autoclaving at 121° C. (106 kPa) for 20 minutes.
(§1) All cultures described herein were transferred onto fresh media every 4 weeks and incubated in a plant tissue culture grade growth chamber under a 16-h photoperiod and a photo flux density of 37.6±4.8 μmol s^−1m^−2 light per day provided by cool white fluorescent tubes at 23±0.1° C., unless otherwise noted.
The seeds were prepared according to Materials and Methods above.
The micropropagated plantlets were then potted in soil and transferred to a greenhouse.

[3] = system: Alexandrian laurel seedlings; test: Culture of germinated seeds in TDZ-supplemented Woody Plant Medium
Experimental: as §1
At 10 weeks, a group of germinated seeds from Example 1 was removed from agar medium containing GA3 and transferred to a supplemented WPM culture further comprising TDZ (at 1.0, 2.0, or 3.0 mg/L, respectively 4.54, 9.08, or 13.62 μM).

Question: `c1ccc(CNc2ncnc3nc[nH]c23)cc1` [BA, 6-benzylamino purine] was tested. Which seedling development ([1]; early growth after the initial seed germination in the presence of BA) did it give?
Answer: The seedling development was “balanced seedling development by simultaneously promoting shoot growth and slowing down root growth”.

Question: And the “shoot and root growth of young seedlings compared to Example 1A” value ([1]; supplemented WPM with BA at 1.0, 2.0 or 3.0 mg/L, about 4 weeks (FIG. 2))?
Answer: Its value is “more balanced shoot and root growth”.

Question: For `C=C1C[C@]23C[C@@]1(O)CC[C@H]2[C@@]12C=C[C@H](O)[C@@](C)(C(=O)O1)[C@H]2[C@@H]3C(=O)O` [GA3, gibberellic acid], which “root and shoot growth of germinated seeds” value ([2]; agar medium containing GA3, at 10 weeks (FIG. 1)) is on record?
Answer: The value was “a lot of root growth and little shoot growth”.

Question: What about the seed germination ([2]; agar medium with 10 ppm GA3, about 10 weeks) of the same molecule?
Answer: The seed germination was “a majority of the seeds had germinated”.

Question: `O=C(Nc1ccccc1)Nc1cnns1` [TDZ, [1-phenyl-3-(1,2,3-thidiazol-5-yl)urea]] was tested. Which “appearance of root growth points” value ([3]; after 50 days of treatment in TDZ supplemented WPM) did it give?
Answer: The value was “root growth points began to turn brown”.

Question: What about the shoots per seed ([3]; early growth after the initial seed germination in the presence of TDZ) of the same molecule?
Answer: The shoots per seed was 5-10 shoots per seed.

Question: And the shoot formation ([3]; supplemented WPM with TDZ at 1.0, 2.0 or 3.0 mg/L, about 50 days (FIG. 3))?
Answer: The shoot formation was “multiple shoots from each seed”.
